# Positions count from the first letter of the chain named.
# Legend:
# Type in all cases: biochemical
# [1] = molecular target: T1, mitochondrial carnitine/acylcarnitine transporter (CACT) (Rattus norvegicus, UniProt P97521); assay: [3H]carnitine/carnitine antiport in proteoliposomes
# T1 construct: gene Slc25a20; recombinant WT rat CACT expressed in E. coli, reconstituted in liposomes
# T1 sequence (P97521 2-301): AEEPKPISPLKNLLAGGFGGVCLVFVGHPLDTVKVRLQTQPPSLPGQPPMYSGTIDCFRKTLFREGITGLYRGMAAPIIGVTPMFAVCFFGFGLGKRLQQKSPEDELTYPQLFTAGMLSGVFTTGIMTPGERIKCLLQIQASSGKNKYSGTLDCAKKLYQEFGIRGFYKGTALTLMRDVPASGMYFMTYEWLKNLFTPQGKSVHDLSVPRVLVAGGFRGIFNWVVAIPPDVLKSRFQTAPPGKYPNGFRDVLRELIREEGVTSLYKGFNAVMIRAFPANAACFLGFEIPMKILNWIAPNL
# [2] = molecular target: T1, mitochondrial carnitine/acylcarnitine transporter (CACT); assay: [3H]carnitine/carnitine antiport in proteoliposomes; acid-activated omeprazole (non-activated compound inactive)
# [3] = molecular target: T2, mitochondrial carnitine/acylcarnitine transporter (CACT), C283A mutant (Rattus norvegicus, UniProt P97521, C283A); assay: […] inhibition of antiport after […] omeprazole and removal of unreacted compound
# T2 construct: gene Slc25a20; recombinant mutant rat CACT reconstituted in liposomes
# T2 sequence (P97521 2-301 C283A): T1 sequence (P97521 2-301) with C282A
# [4] = molecular target: T3, mitochondrial carnitine/acylcarnitine transporter (CACT), C136S mutant (Rattus norvegicus, UniProt P97521, C136S); assay: as above
# T3 construct: gene Slc25a20; recombinant mutant rat CACT reconstituted in liposomes
# T3 sequence (P97521 2-301 C136S): T1 sequence (P97521 2-301) with C135S
smiles,measurement,setting,value
Cc1c(OCC(F)(F)F)ccnc1C[S+]([O-])c1nc2ccccc2[nH]1 (centres unmarked) [lansoprazole],IC50,[1]; read-out: IC50,80 µM
COc1ccc2[nH]c([S+]([O-])Cc3ncc(C)c(OC)c3C)nc2c1 (centres unmarked) [omeprazole],IC50,[2],5.4 µM
same,inhibition at 30 µM,[3],53%
same,inhibition at 30 µM,[4],59%
COc1ccnc(C[S+]([O-])c2nc3ccc(OC(F)F)cc3[nH]2)c1OC (centres unmarked) [pantoprazole],IC50,[1],6.4 µM
